Measured values reported in patent US9890369B2 (priority 2013, dated 2018).
“And” between values parts separate entries of the source, which are not always exact repeats. Equal entries are not always repeated.

Assays:
[1] = tested on: CHO K1 cells (WTP4); assay type: cell-based, Chinese hamster
[2] = tested on: CHO K1 cells; assay type: cell-based, Chinese hamster
[3] = tested on: HeLa cells; assay type: cell-based, human

CN[C@@H]1C[C@H]2O[C@@](C)([C@@H]1OC)n1c3ccccc3c3c4c(c5c6ccccc6n2c5c31)C(=O)NC4 [Staurosporine, staurosporine]
% G0/G1 [1]: 42.9% and 41.8%
% G2/M [1]: 13.6% and 12.2%
apoptosis induction by TUNEL staining (in words) [2]: complete conversion of cells
apoptosis induction by PARP cleavage [3]: apoptosis induction
